For 18 molecules, GI50 and TGI results are on record in PubChem BioAssay (NCI).

Test systems include MCF7 breast; PC-3 prostate; HS 578T breast; NCI/ADR-RES ovarian.
Holding throughout (test): NCI anticancer screen, dose series, 48 h

Several values for one entry are separate records, joined by “and”; a condition that tells them apart may be missing. Equal values may be shown once.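 All cell lines were grown in 96-well plates and treated with compound for 48 hours. Here, GI50 denotes the concentration required for 50% inhibition of growth. TGI is the concentration that stops growth completely.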

For `COc1cc(CNC(=O)/C=C/C=C/c2ccc3c(c2)OCO3)ccc1OCc1cn(-c2ccc(Cl)c(Cl)c2)nn1`, the GI50 is 0.889 µM with MCF7 breast, 1.48 µM in the assay with PC-3 prostate, 2.53 µM in the assay with HS 578T breast and 1.42 µM with NCI/ADR-RES ovarian. In addition, the TGI was found to be 3.23 µM with MCF7 breast, 3.47 µM with PC-3 prostate, 8.56 µM in the assay with HS 578T breast and 4.93 µM in the assay on NCI/ADR-RES ovarian.
With `C[N+](C)(C)CCOP(=O)(O)OP(=O)([O-])OCC1CCC(n2ccc(N)nc2=O)O1` (centres undefined), the TGI with MCF7 breast, in the assay with PC-3 prostate, in the assay with HS 578T breast and with NCI/ADR-RES ovarian was over 100 µM in each case.
Take `OC(c1cc(C(O)(C(F)(F)F)C(F)(F)F)ncn1)(C(F)(F)F)C(F)(F)F`: the TGI with MCF7 breast, with PC-3 prostate, with HS 578T breast and in the assay on NCI/ADR-RES ovarian was over 10 µM throughout.
For the molecule `CCN(CC)CCn1ncc2ccc3c(c(=O)c4cccnc4n3CCN(CC)CC)c21`, the TGI was 4.62 µM in the assay on MCF7 breast, 3.85 µM in the assay on PC-3 prostate, over 6 µM in the assay on HS 578T breast and 4.86 µM in the assay with NCI/ADR-RES ovarian.
As to `COc1cc2c(cc1OC)C(CCc1ccc(Cl)cc1)N(C)CC2` (centres undefined), the GI50 in the assay with MCF7 breast is 21.2 µM; with PC-3 prostate, 20.1 µM; in the assay on HS 578T breast it was 18.3 µM; with NCI/ADR-RES ovarian, 17.7 µM. In addition, the TGI in the assay on MCF7 breast was 47 µM; in the assay with PC-3 prostate it was over 100 µM; in the assay with HS 578T breast, 51.4 µM; in the assay with NCI/ADR-RES ovarian it was 39.4 µM.
With `C/C(CC(O)(C(F)(F)F)C(F)(F)F)=N\N`, the TGI with MCF7 breast, with PC-3 prostate, in the assay on HS 578T breast and with NCI/ADR-RES ovarian was over 10 µM throughout.
In the case of `CC(C)=CC/C=C(/C)[C@H]1CC[C@]2(C)[C@@H]1CC[C@@H]1[C@@]3(C)CCC(=O)NC(C)(C)[C@@H]3CC[C@]12C`, the GI50 in the assay with MCF7 breast is 18.8 µM; in the assay on PC-3 prostate, 7.49 µM; in the assay on HS 578T breast, 26.3 µM; in the assay on NCI/ADR-RES ovarian, 22.2 µM. In addition, the TGI stood at 62.8 µM in the assay on MCF7 breast, 23.9 µM in the assay on PC-3 prostate, 94.3 µM in the assay on HS 578T breast and 55.6 µM in the assay on NCI/ADR-RES ovarian.
Regarding `CCN1CCN(CCOc2ccc(CNc3ccc4nc(CCC5CCCCC5)[nH]c4c3)cc2)CC1`, the GI50 was 1.8 µM in the assay with MCF7 breast, 2.02 µM in the assay on PC-3 prostate, 1.61 µM in the assay on HS 578T breast and 3.11 µM in the assay on NCI/ADR-RES ovarian. In addition, the TGI came out at 5.84 µM in the assay on MCF7 breast, 5.89 µM in the assay with PC-3 prostate, 4.85 µM in the assay with HS 578T breast and 11.2 µM in the assay on NCI/ADR-RES ovarian.
With `Nc1nc(N)c2cc(CNc3ccc(Cl)c(Cl)c3)ccc2n1`, the GI50 in the assay with MCF7 breast is 0.775 µM; with PC-3 prostate it was 0.412 µM; with HS 578T breast, 1.34 µM; in the assay on NCI/ADR-RES ovarian, 0.802 µM. Further, the TGI in the assay on MCF7 breast was determined as 2.05 µM; with PC-3 prostate, 1.89 µM; in the assay with HS 578T breast it was 3.02 µM; in the assay with NCI/ADR-RES ovarian, 3.25 µM.
Take `Cc1cccc(CN(C)c2ccc(CO)c(Cl)c2)c1`: the GI50 with MCF7 breast was 1.54 µM; in the assay on PC-3 prostate, 22.2 µM; in the assay with HS 578T breast it was 22.5 µM; with NCI/ADR-RES ovarian it was 17.2 µM. Also, the TGI in the assay with MCF7 breast is 21.3 µM; in the assay on PC-3 prostate it was 96.3 µM; in the assay on HS 578T breast, over 83.3 µM; in the assay with NCI/ADR-RES ovarian it was 59.3 µM.
Regarding `O=C1NC(=NCC(CO)c2ccccc2)S/C1=C\c1ccc2ncccc2c1` (centres undefined), the GI50 in the assay with MCF7 breast is 12.4 µM; in the assay on PC-3 prostate it was over 25 µM; in the assay on HS 578T breast, 14.7 µM; with NCI/ADR-RES ovarian, over 25 µM. Moreover, the TGI in the assay on MCF7 breast, with PC-3 prostate, in the assay on HS 578T breast and in the assay on NCI/ADR-RES ovarian was over 25 µM in each case.
As for `CC1=C(N2CC2)C(=O)C(CO)=C(N2CC2)C1=O`, the GI50 in the assay with MCF7 breast was 0.00487 µM; in the assay with PC-3 prostate, 0.0159 µM and < 0.0213 µM; with HS 578T breast it was 0.139 µM; in the assay on NCI/ADR-RES ovarian it was 0.0161 µM. The TGI is 0.0938 µM and 0.0967 µM in the assay with MCF7 breast; 0.0791 µM with PC-3 prostate; 0.352 µM and 1.43 µM with HS 578T breast; 0.0671 µM and 0.0182 µM in the assay with NCI/ADR-RES ovarian.
In the case of `C=C1CC[C@@H]2C(C)(C)[C@@H](O)CC[C@@]2(C)[C@@H]1COc1ccc2ccc(=O)oc2c1`, the GI50 was 8.02 µM in the assay on MCF7 breast, 5.71 µM in the assay with PC-3 prostate, 15.4 µM in the assay with HS 578T breast and 10.5 µM in the assay with NCI/ADR-RES ovarian. Besides, the TGI with MCF7 breast is 24.7 µM; with PC-3 prostate, 21.8 µM; in the assay on HS 578T breast it was 49.5 µM; in the assay on NCI/ADR-RES ovarian it was 30.8 µM.
Turning to `Nc1ccc2c(c1)C(=O)c1ccc(F)cc1-2`, the TGI in the assay on MCF7 breast, with PC-3 prostate, with HS 578T breast and with NCI/ADR-RES ovarian was over 100 µM throughout.
For `COC1=C(OC)C(=O)C(/C=C(\C)C(=O)O)=C(C)C1=O`, the GI50 with MCF7 breast, in the assay with PC-3 prostate, in the assay with HS 578T breast and in the assay on NCI/ADR-RES ovarian was over 100 µM each time. Besides, the TGI with MCF7 breast, with PC-3 prostate, in the assay with HS 578T breast and with NCI/ADR-RES ovarian was over 100 µM throughout.
Take `Cc1ccc(-n2c3c(c4c(CN5CCCCC5)c(O)ccc42)CCc2ccccc2C3=O)cc1`: the GI50 with MCF7 breast is over 100 µM; with PC-3 prostate, 59.2 µM; in the assay with HS 578T breast, over 100 µM; with NCI/ADR-RES ovarian it was 71.2 µM. Moreover, the TGI in the assay on MCF7 breast, with PC-3 prostate, in the assay on HS 578T breast and with NCI/ADR-RES ovarian was over 100 µM throughout.
Consider `CCCc1cc(=O)oc2c(C(=O)CC(C)C)c(O)c(CC=C(C)C)c(O)c12`, for which the GI50 in the assay with MCF7 breast was 7.83 µM; in the assay with PC-3 prostate it was 6.22 µM; in the assay on HS 578T breast, 13.4 µM; with NCI/ADR-RES ovarian it was 8.6 µM. The TGI was over 50 µM in the assay with MCF7 breast, 34.3 µM in the assay with PC-3 prostate, over 50 µM with HS 578T breast and 48.1 µM with NCI/ADR-RES ovarian.
As for `C=CCN1C(=O)/C(=c2\sc3n(c2=O)C2C(NN=3)N(CC)C(=O)N2CC)c2ccccc21` (centres undefined), the GI50 is 0.448 µM in the assay on MCF7 breast, 0.548 µM in the assay on PC-3 prostate, 0.447 µM with HS 578T breast and 0.434 µM in the assay with NCI/ADR-RES ovarian. The TGI in the assay with MCF7 breast was over 100 µM; in the assay on PC-3 prostate it was over 100 µM; in the assay with HS 578T breast, 58.5 µM; with NCI/ADR-RES ovarian it was over 40.5 µM.
